Laboratory results reported in patent publication US20050171161A1, “Method of treatment or prevention of obesity” (priority 2002, published 2005).
Structures can show the parent of a compound that is named as a salt. Where two headings read alike, the source gives them in different places.

Key:
11β-HSD1 enzyme (hHSD1) = target: T1, 11β-HSD1 enzyme (hHSD1) (Homo sapiens, UniProt P28845); assay: 11β-HSD1 inhibition, Scintillation Proximity Assay; format: biochemical; conditions: SPA, tritiated cortisone, NADPH
T1 construct: expressed in transfected cells; host or cells: CHO transfectants (microsomes)
T1 sequence (P28845 whole entry): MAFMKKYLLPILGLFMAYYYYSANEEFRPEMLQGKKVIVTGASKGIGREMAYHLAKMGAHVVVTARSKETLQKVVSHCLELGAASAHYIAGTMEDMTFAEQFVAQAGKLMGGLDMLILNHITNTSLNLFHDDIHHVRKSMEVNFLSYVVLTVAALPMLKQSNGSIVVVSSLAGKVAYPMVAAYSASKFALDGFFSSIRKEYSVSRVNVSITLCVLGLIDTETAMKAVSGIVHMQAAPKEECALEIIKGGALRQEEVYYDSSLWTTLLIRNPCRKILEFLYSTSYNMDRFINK
Experimental: 11β-HSD1 Inhibition Constants
(§1) In vitro enzymatic activity is assessed for test compounds via a Scintillation Proximity Assay (SPA). Tritiated-cortisone substrate, NADPH cofactor and titrated compound are incubated with 11β-HSD1 enzyme at 37° C. to allow conversion to cortisol to progress. Following this incubation, protein A coated SPA beads, pre-blended with anti-cortisol monoclonal antibody and a non-specific 11β-HSD inhibitor, are added to each well. The mixture is shaken at 15° C. and then read on a liquid scintillation counter suitable for 96 well plates.
(§2) Percent inhibition is calculated relative to a non-inhibited control well, and IC50 curves are generated.
(§3) This assay is similarly applied to 11β-HSD2. Tritiated cortisol and NAD are used as the substrate and cofactor, respectively. 40 μL of substrate (25 nM ^3H-Cortisone+1.25 mM NADPH in 50 mM HEPES Buffer, pH 7.4) are added to designated wells on a 96 well plate. Solid compound is dissolved in DMSO at 10 mM followed by a subsequent 50 fold dilution in DMSO. The diluted material is then titrated 4 fold, seven times. 1 μL of each titrated compound is then added in duplicate to the substrate. To start the reaction, 10 μL of 11β-HSD1 microsome from CHO transfectants is added to each well at the appropriate concentration to yield approximately 10% conversion of the starting material. For ultimate calculation of percent inhibition, a series of wells is added that represent the assay minimum and maximum: one set that contains substrate without compound or enzyme (background), and another set that contains substrate and enzyme without any compound (maximum signal). The plates are spun briefly at a low speed in a centrifuge to pool the reagents, sealed with an adhesive strip, mixed gently, and incubated at 37° C. for 2 hours. After incubation, 45 μL of SPA beads, pre-suspended with anti-cortisol monoclonal antibody and non-specific 11β-HSD inhibitor, are added to each well. The plates are resealed and shaken gently for greater than 1.5 hours at 15° C. Data is collected on a plate based liquid scintillation counter such as a Topcount. To control for inhibition of anti-cortisol antibody/cortisol binding, substrate spiked with 1.25 nM [3]H cortisol is added to designated single wells. 1 μL of 200 μM compound is added to each of these wells, along with 10 μL of buffer instead of enzyme. Any calculated inhibition is due to compound interfering with the cortisol binding to the antibody on the SPA beads.

11β-HSD2 (hHSD2) = target: T2, 11β-HSD2 (hHSD2) (Homo sapiens, UniProt P80365); assay: 11β-HSD2 inhibition, Scintillation Proximity Assay; format: biochemical; conditions: SPA, tritiated cortisol, NAD
T2 sequence (P80365 1-405): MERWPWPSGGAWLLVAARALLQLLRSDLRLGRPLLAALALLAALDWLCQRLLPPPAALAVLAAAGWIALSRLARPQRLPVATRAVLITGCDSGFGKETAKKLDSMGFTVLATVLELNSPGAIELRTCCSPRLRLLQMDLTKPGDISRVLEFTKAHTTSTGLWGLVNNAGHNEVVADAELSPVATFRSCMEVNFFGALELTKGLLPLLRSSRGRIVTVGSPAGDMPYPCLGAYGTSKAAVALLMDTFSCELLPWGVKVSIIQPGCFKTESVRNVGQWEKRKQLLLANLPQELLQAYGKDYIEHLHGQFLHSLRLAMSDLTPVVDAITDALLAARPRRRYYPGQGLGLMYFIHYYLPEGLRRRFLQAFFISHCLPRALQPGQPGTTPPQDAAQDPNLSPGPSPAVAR
Experimental: as §1, §2, §3

Sodium channel site 2 = Sodium channel site 2 binding
Source text: (§4) Ion channel assays have also been reported in the literature. The following are representative.

[1] = target: T3, recombinant human CB2 receptor (Homo sapiens, UniProt P34972); assay: CB2 Receptor Binding Assay
T3 construct: expressed in transfected cells; host or cells: CHO cells (membranes)
T3 sequence (P34972 whole entry): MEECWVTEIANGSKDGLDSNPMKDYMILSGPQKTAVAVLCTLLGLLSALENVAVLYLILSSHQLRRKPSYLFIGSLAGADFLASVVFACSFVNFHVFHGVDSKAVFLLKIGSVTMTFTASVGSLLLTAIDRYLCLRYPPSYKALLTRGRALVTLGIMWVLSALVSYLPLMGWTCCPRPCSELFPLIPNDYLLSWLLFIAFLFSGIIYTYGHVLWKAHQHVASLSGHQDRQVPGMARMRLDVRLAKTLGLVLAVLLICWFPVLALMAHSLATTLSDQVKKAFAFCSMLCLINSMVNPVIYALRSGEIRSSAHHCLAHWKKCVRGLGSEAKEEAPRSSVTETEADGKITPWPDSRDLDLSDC
Experimental: CB2 Receptor Binding Assay
The binding assay for CB2 receptor is conducted similarly, with recombinant human CB2 receptor expressed in CHO cells.

[2] = target: T4, recombinant human CB1 receptor (Homo sapiens, UniProt P21554); assay: Cannabinoid Receptor-1 (CB1) Binding Assay
T4 construct: expressed in transfected cells; host or cells: CHO cells (membranes)
T4 sequence (P21554 whole entry): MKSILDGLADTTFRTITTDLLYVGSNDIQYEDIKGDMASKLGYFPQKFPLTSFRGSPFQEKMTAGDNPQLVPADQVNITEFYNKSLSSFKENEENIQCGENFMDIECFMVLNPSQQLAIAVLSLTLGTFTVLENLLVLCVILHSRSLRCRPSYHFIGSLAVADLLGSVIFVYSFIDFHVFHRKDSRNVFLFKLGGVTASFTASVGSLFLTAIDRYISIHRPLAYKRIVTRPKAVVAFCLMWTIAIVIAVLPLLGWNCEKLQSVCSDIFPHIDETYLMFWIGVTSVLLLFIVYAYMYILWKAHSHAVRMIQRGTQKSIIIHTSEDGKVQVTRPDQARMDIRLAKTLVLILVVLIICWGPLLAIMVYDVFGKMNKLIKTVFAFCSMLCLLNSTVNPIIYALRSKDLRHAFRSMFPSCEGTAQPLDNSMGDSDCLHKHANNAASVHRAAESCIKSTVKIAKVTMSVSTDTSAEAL
Experimental: Cannabinoid Receptor-1 (CB1) Binding Assay.
Binding buffer contains 50 mM Tris-HCl, pH7.4, 2.5 mM EDTA, 5 mM MgCl2, 0.5 mg/ml fatty acid free bovine serum albumin and protease inhibitors (Cat#P8340, from Sigma). To initiate the binding reaction, 5 μl of radioligand solution is added, the mixture is incubated with gentle shaking on a shaker for 1.5 hours at 30° C. The binding is terminated by using 96-well harvester and filtering through GF/C filter presoaked in 0.05% polyethylenimine. The bound radiolabel is quantitated using scintillation counter.

Calcium channel = Calcium channel binding
Source text: as §4

Potassium channel (Ikr) = Potassium channel (Ikr) (Homo sapiens, UniProt Q12809); assay: Potassium channel (Ikr) binding
Potassium channel (Ikr), sequence (Q12809 whole entry): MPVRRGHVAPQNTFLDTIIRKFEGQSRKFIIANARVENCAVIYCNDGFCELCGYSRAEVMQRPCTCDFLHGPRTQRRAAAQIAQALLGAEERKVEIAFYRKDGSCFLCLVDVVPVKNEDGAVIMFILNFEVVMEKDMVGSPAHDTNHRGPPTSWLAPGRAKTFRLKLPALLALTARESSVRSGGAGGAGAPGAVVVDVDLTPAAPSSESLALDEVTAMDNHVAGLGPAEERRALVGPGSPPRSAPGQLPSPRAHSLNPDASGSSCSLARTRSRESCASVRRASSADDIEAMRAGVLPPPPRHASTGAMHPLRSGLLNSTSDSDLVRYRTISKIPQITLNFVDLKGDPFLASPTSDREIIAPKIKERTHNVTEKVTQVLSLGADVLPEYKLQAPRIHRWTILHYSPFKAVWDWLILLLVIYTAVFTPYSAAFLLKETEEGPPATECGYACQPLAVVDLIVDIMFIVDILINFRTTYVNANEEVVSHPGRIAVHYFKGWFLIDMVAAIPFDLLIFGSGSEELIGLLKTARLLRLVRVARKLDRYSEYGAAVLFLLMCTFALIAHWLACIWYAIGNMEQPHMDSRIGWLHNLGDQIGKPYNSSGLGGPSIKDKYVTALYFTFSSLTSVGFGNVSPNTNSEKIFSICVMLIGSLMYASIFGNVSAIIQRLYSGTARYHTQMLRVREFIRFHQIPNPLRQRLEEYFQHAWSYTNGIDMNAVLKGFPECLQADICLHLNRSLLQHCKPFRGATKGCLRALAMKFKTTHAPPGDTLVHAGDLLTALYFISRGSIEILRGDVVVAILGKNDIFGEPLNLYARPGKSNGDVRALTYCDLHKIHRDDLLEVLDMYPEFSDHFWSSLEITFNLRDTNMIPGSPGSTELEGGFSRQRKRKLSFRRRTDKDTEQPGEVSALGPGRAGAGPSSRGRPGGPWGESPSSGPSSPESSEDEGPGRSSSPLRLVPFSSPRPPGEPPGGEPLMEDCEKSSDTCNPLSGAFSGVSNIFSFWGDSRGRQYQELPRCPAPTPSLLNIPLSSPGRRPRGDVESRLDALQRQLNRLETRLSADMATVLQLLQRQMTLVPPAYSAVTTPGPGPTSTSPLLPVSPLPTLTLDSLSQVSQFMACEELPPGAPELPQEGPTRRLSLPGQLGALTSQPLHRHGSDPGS
Source text: as §4

[3] = CHO cell membranes, [3H]CP-55940 0.6 nM, read-out: hCB1 IC50

SMILES	IC50 (11β-HSD1 enzyme (hHSD1))	IC50 (11β-HSD2 (hHSD2))	IC50 ([1]; CHO cells, read-out: hCB2 IC50)	also measured
Cn1c(C(=O)NN2CCCCC2)nc(-c2ccc(Cl)cc2Cl)c1-c1ccc(Cl)cc1 [Compound 2, N-(Piperidin-1-yl)-4-(2,4-dichlorophenyl)-5-(4-chlorophenyl)-1-methylimidazole-2-carboxamide]	–	–	100 to 1000 nM	Ion Channel Values Na (Sodium channel site 2): 6 µM; IC50 [2, 3]: < 10 nM; Ion Channel Values Ca (Calcium channel): 1200 nM; Ion Channel Values K (Potassium channel (Ikr)): 1.3 µM
CC12CC3(C)CC(C)(C1)CC(Cc1nnc4n1CCCCC4)(C2)C3 [Compound 7, 3-[(3,5,7-trimethyl-1-adamantyl)methyl]-6,7,8,9-tetrahydro-5H-[1,2,4]triazolo[4,3-a]azepine Trifluoroacetate Salt]	10 to 100 nM	> 1000 nM	–	–
Cn1c(C(=O)NC2CCCCC2)nc(-c2ccc(Cl)cc2Cl)c1-c1ccc(Cl)cc1 [Compound 5, N-(Cyclohexyl)-4-(2,4-dichlorophenyl)-5-(4-chlorophenyl)-1-methylimidazole-2-carboxamide]	–	–	–	Ion Channel Values Na (Sodium channel site 2): 4 µM; IC50 [1]: 100 to 1000 nM; IC50 [2]: < 10 nM; Ion Channel Values Ca (Calcium channel): 4600 nM; Ion Channel Values K (Potassium channel (Ikr)): 5.6 µM
Cn1c(C(=O)Nc2ccccc2)nc(-c2ccc(Cl)cc2Cl)c1-c1ccc(Cl)cc1 [Compound 6, N-(Phenyl)-4-(2,4-dichlorophenyl)-5-(4-chlorophenyl)-1-methylimidazole-2-carboxamide]	–	–	100 to 1000 nM	IC50 [2, 3]: 10 to 100 nM
Cc1ccc(-c2nc(C(=O)NC3CCCCC3)n(C)c2-c2ccc(C)cc2)cc1 [Compound 4, N-Cyclohexyl-4,5-di-(4-methylphenyl)-1-methylimidazole-2-carboxamide]	–	–	> 1000 nM	IC50 [2]: 100 to 1000 nM
Cc1ccc(-c2nc(C(=O)NN3CCCCC3)n(C)c2-c2ccc(C)cc2)cc1 [Compound 3, N-(Piperidin-1-yl)-4,5-di-(4-methylphenyl)-1-methylimidazole-2-carboxamide]	–	–	> 1000 nM	–

Second part, led by results:

IC50 (11β-HSD1 enzyme (hHSD1))	IC50 (11β-HSD2 (hHSD2))	IC50 ([1]; CHO cells, read-out: hCB2 IC50)	SMILES	also measured
10 to 100 nM	> 1000 nM	–	CCSc1nnc(C23CC4CC(CC(C4)C2)C3)n1CC [Compound 8, 3-(1-adamantyl)-4-ethyl-5-(ethylthio)-4H-1,2,4-triazole]	–
100 to 1000 nM	> 1000 nM	–	C1CCCCc2nnc(C34CC5CC(CC(C5)C3)C4)n2CCCC1 [Compound 10, 3-adamantanyl-4,5,6,7,8,9,10,11,12,3a-decahydro-1,2,4-triazolo[4,3-a][11]annulene]	–
< 10 nM	< 10 nM	–	COc1cc(-c2nnc(C34CC5CC(CC(C5)C3)C4)n2C)cc(OC)c1OC [Compound 9, 3-(1-adamantyl)-5-(3,4,5-trimethoxyphenyl)-4-methyl-4H-1,2,4-triazole]	–
